Active and inactive are the calls of the source. The rule behind the calls is not given here. Square brackets hold non-standard residues; d marks the D form. Peptide text beside a SMILES is read from it. * marks the point of attachment. dNMeF = CN[C@H](Cc1ccccc1)C(=O)O; NMeL = CN[C@@H](CC(C)C)C(=O)O; dNMeV = CN[C@@H](C(=O)O)C(C)C; Butyryl = CCCC(=O)* Bounds are passed on as bounds.

Data set [1] concerns Primary neocortical neuron. The experiment in a line: Suppression of spontaneous calcium oscillation frequency in Swiss-Webster mouse primary neocortical neuron at 10 uM incubated for 45 min by Fluo-4 dye based. Format: functional, cell-based.
Data set [2] can be described thus: Cytotoxicity against Swiss-Webster mouse primary neocortical neuron at 10 uM incubated for 45 min by multi minute duration test. Format: toxicity, cell-based. The conditions noted are these: 0.75 h.
In another data set the test system is K562. The data set is described as follows: Cytotoxicity against human K562 cells measured after 72 hrs by MTT assay. Format: functional, cell-based. The following applies: K562, 72 h.
In another data set the test system is CCRF-CEM. The data set is described as follows: Cytotoxicity against human CCRF-CEM cells measured after 72 hrs by MTT assay. In kind it is functional, cell-based.
The next data set concerns U-937. The experiment in a line: Cytotoxicity against human U-937 cells measured after 72 hrs by MTT assay. Format: functional, cell-based. The following applies: U-937, 72 h.

For the compound `CCCC(=O)N(C)[C@H](C(=O)N(C)[C@@H](CC(C)C)C(=O)N[C@@H](CC(C)C)C(=O)N1CCC[C@H]1C(=O)N(C)[C@@H](C(=O)N[C@H](C(=O)NCC(=O)N(C)[C@H](Cc1ccccc1)C(=O)N1CCC[C@H]1C(=O)OC)[C@@H](C)CC)C(C)C)C(C)C`, the outcome in data set [1] was Active. Further, the Activity entry in data set [2] is “Non-Toxic”. Besides, the IC50 in the data set on K562 was found to be 21 µM; in the data set with CCRF-CEM, 5.6 µM; with U-937, 7.3 µM.
As for `CCCC(=O)N[C@H](C(=O)N(C)[C@@H](CC(C)C)C(=O)N[C@@H](CC(C)C)C(=O)N1CCC[C@H]1C(=O)N(C)[C@@H](C(=O)N[C@H](C(=O)NCC(=O)N(C)[C@H](Cc1ccccc1)C(=O)N1CCC[C@H]1C(=O)OC)[C@@H](C)CC)C(C)C)C(C)C` (Butyryl-V[NMeL]LP[dNMeV]IG[dNMeF]P-OMe), in data set [1], the result was Active. Besides, the Activity result in data set [2] is on record as “Non-Toxic”. Further, the values for the IC50 in the data set on K562, in the data set on CCRF-CEM and in the data set with U-937 were greater than 25 µM, 8.3 µM and 6.1 µM, respectively.
Consider `Nc1cc(F)ccc1NC(=O)c1ccc(CNC(=O)/C=C/c2cccnc2)cc1` [TUCIDINOSTAT], for which the IC50 with K562 came to 8.3 µM; with CCRF-CEM, 1 µM; in the data set with U-937, 3.3 µM.

The values above are taken from ChEMBL document CHEMBL5131427, “Targeted Discovery of Amantamide B, an Ion Channel Modulating Nonapeptide from a South China Sea Oscillatoria Cyanobacterium” (J Nat Prod, 2022).
